# Experimental data: US11084795B2, “CFTR regulators and methods of use thereof” (The Regents of the University of California, priority 2015, dated 2021)
# “Also recorded” adds a separate entry of the source.
# Legend:
# human wildtype CFTR = human wildtype CFTR (Homo sapiens, UniProt P13569); assay: Fluorescence plate reader assay of iodide influx in FRT cells co-expressing CFTR and YFP halide sensor; settings: synthesized compounds, full dose-response study; 125 nM forskolin
# ΔF508-CFTR = biological target: T1, ΔF508-CFTR (Homo sapiens, UniProt P13569, DEL508-508); assay: Short-circuit current in FRT cells expressing ΔF508-CFTR corrected with VX-809; type: cell-based; settings: after overnight incubation with a corrector
# T1 construct: expressed in transfected cells; host or cells: Fischer rat thyroid (FRT) cells
# T1 sequence (P13569 with tags, fused parts or gaps DEL508-508): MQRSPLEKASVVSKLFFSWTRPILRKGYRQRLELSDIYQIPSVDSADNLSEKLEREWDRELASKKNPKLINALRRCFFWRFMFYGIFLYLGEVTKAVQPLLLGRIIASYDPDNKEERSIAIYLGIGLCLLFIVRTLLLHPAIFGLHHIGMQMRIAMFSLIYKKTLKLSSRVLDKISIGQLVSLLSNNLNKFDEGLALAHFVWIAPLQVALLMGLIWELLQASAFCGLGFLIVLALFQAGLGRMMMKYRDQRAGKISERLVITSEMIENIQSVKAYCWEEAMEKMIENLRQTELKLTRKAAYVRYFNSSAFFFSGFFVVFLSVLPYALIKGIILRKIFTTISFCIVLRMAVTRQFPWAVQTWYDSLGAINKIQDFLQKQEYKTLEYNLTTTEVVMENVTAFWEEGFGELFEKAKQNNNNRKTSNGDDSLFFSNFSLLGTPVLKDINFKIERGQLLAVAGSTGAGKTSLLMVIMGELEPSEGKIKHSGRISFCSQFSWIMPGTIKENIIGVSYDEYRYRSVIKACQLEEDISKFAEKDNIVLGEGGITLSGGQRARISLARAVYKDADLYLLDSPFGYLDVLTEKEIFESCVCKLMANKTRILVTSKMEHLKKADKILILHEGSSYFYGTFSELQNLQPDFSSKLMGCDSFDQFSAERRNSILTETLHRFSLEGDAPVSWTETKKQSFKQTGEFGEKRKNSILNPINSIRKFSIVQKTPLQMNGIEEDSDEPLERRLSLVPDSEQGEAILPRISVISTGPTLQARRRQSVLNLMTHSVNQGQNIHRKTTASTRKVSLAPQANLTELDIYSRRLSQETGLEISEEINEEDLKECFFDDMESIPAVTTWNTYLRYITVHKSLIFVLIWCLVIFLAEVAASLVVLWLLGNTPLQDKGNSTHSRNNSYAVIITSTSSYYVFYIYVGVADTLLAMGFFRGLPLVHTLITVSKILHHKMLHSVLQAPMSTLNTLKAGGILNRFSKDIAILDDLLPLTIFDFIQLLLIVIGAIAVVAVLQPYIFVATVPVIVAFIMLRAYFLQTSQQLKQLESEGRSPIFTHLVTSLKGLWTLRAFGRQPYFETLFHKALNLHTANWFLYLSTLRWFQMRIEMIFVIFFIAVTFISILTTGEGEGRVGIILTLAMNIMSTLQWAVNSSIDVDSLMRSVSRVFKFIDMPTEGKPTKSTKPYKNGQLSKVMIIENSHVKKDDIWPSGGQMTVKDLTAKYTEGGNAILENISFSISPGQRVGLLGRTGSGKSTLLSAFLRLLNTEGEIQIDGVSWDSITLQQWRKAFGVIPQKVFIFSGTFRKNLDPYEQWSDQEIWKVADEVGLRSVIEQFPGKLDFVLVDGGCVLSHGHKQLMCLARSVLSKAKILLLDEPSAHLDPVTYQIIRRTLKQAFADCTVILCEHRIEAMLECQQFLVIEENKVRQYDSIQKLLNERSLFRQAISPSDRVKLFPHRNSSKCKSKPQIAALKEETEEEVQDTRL
# Method: FIGS. 9A-9E. Characterization of CFTR activation by CFTRact-J027. Short-circuit current measured in FRT cells expressing human wild-type CFTR (FIG. 9A) and ΔF508-CFTR (FIG. 9C) showing responses to indicated concentrations of forskolin (fsk), CFTRact-J027, and VX-770. The ΔF508-CFTR-expressing FRT cells were corrected with 3 μM VX-809 at 37° C. for 24 h before measurement. CFTRinh-172 (Inh-172, 10 μM) was added where indicated. FIG. 9B. CFTRact-J027 concentration-dependent activation of wild-type CFTR Cl^− current (S.E.; n=3 cultures). FIG. 9D. Short-circuit current in mouse colon showing responses to indicated concentrations of forskolin (fsk), CFTRact-J027, and CFTRinh-172. FIG. 9E. Assay of cAMP concentration in FRT cells measured following 10-min incubation with indicated concentrations of forskolin and 5 μM CFTRact-J027. Positive controls included forskolin (100 nM and 20 μM), and forskolin plus 3-isobutyl-1-methylxanthine (IBMX, 100 μM) (mean±SE, n=4-8).
# [1] = In vitro metabolic stability in mouse liver microsomes; type: in vitro ADME; settings: NADPH
# Method: (§1) CFTRact-J027 (5 μM) was incubated for specified times at 37° C. with mouse liver microsomes (1 mg protein/ml; Sigma-Aldrich) in potassium phosphate buffer (100 mM) containing 1 mM NADPH, as described. The mixture was then chilled on ice, and 0.5 ml of ice-cold ethyl acetate was added. Samples were centrifuged for 15 min at 3000 rpm, the supernatant evaporated to dryness, and the residue was dissolved in 100 μL mobile phase (acetonitrile:water, 3:1) for LC/MS and assayed as described above.
# as §1, with “In vitro metabolic stability. CFTRact-J027” for “CFTRact-J027”
# In vitro metabolic stability. Test compound (at 5 μM) was incubated for specified times at 37° C. with mouse liver microsomes (1 mg protein/ml; Sigma-Aldrich, St. Louis, Mo.) in potassium phosphate buffer containing 1 mM NADPH, as described. Following ethyl acetate extraction, non-metabolized parent compound was assayed by LC/MS.
# [2] = tested on: CFTR at the ocular surface; assay: Ocular surface potential difference (PD) in living mice; type: in vivo, mouse; settings: wild-type mice, 1-10 μM
# Method: Open-circuit transepithelial PD were measured continuously in anesthetized mice in response to serial perfusions of different solutions over the ocular surface, as described (21). Mice were anesthetized with Avertin (2,2,2-tribromoethanol, 125 mg/kg intraperitoneal, Sigma-Aldrich, St. Louis, Mo., USA), and core temperature was maintained at 37° C. using a heating pad. Eyes were oriented with the cornea and conjunctiva facing upward and exposed by retracting the eyelid with cross-action forceps. Solutions were isosmolar (320±10 mOsM; compositions provided in ref. 21) and contained 10μ[…] indomethacin to prevent CFTR activation by prostaglandins. The ocular surface was perfused at 6 mL/min through plastic tubing using a multireservoir gravity pinch-valve system (ALA Scientific, Westbury, N.Y., USA) and variable-flow peristaltic pump (medium flow model; Fisher Scientific, Fair Lawn, N.J., USA). A probe catheter was fixed 1 mm above the cornea using a micropositioner and a suction cannula was positioned 3 mm from the orbit. The measuring electrode was in contact to the perfusion catheter and connected to a high-impedance voltmeter (IsoMilivolt Meter; WPI). The reference electrode was grounded via a winged 21-gauge needle filled with isosmolar saline, and inserted subcutaneously in the abdomen. Measuring and reference electrodes consisted of Ag/AgCl with 3 M KCl agar bridges.
# An open-circuit potential difference (PD) method developed in our lab was used to evaluate compound activity at the ocular surface in vivo, as depicted in FIG. 3A (21). Cl^− channel function was quantified by measuring PD during continuous perfusion of the ocular surface with a series of solutions that imposed a transepithelial Cl^− gradient and contained various channel agonists and/or inhibitors. The ocular surface was first perfused with isosmolar saline to record the baseline PD. Amiloride was then added to the perfusate, followed by exchange to a low Cl^− solution in which Cl^− with an impermeant anion, gluconate. These maneuvers allow for direct visualization of CFTR activation in response to addition of candidate CFTR activators.
# Ocular surface potential difference measurements. Open-circuit transepithelial PD were measured continuously in anesthetized mice in response to serial perfusions of different solutions over the ocular surface, as described (21). Mice were anesthetized with Avertin (2,2,2-tribromoethanol, 125 mg/kg intraperitoneal, Sigma-Aldrich, St. Louis, Mo., USA), and core temperature was maintained at 37° C. using a heating pad. Eyes were oriented with the cornea and conjunctiva facing upward and exposed by retracting the eyelid with cross-action forceps. […]
# Sequence of human wildtype CFTR (P13569 whole entry): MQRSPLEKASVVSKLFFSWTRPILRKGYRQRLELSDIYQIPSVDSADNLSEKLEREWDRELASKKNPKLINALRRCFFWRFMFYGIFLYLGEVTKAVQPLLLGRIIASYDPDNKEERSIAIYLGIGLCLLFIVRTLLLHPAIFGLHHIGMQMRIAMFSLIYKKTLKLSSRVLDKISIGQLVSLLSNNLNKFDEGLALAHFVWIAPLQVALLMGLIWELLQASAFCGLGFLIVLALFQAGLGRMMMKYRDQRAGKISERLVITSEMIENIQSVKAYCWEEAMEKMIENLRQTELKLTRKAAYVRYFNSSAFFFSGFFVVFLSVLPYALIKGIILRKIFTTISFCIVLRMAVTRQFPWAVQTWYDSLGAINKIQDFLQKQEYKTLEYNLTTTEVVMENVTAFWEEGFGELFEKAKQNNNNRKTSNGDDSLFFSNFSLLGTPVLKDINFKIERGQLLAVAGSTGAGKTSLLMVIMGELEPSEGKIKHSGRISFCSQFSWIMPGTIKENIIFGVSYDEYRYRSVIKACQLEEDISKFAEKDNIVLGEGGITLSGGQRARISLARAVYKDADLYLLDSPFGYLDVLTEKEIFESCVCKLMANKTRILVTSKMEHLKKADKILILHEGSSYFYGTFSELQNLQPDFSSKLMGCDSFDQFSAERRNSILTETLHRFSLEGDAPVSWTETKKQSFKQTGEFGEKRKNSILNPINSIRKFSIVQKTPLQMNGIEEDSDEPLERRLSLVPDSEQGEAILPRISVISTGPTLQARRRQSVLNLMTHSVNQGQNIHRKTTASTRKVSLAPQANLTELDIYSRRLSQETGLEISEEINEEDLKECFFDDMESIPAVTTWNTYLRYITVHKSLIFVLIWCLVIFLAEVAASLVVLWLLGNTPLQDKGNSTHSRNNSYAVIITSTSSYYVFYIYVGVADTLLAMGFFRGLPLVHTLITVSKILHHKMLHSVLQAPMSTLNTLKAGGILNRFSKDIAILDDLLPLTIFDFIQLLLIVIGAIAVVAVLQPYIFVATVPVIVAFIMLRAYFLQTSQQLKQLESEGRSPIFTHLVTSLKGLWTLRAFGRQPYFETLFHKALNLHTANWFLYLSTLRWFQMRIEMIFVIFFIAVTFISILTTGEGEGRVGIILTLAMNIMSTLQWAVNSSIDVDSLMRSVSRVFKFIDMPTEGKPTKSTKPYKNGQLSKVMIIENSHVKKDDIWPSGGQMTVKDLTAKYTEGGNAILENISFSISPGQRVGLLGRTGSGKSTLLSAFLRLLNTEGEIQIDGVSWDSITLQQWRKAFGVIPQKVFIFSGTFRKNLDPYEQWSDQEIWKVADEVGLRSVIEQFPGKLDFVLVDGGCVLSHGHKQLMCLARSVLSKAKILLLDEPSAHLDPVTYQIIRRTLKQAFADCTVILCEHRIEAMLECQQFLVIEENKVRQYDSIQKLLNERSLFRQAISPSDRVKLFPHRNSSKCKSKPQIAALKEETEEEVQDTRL
smiles,measurement,setting,value
"Nc1ccc([N+](=O)[O-])cc1-c1nc2ccccc2n(Cc2ccccc2)c1=O [CFTRact-J027, 3-(2-amino-5-nitrophenyl)-1-benzylquinoxalin-2(1H)-one]",EC50,human wildtype CFTR,0.2 µM
same,potentiation of ΔF508-CFTR,ΔF508-CFTR,substantially less potent than ivacaftor; also recorded: only a weak potentiator
same,compound metabolized at 60 min,[1]; mouse hepatic microsomes,~100%
same,original compound remaining at 60 min,[1]; mouse liver microsomes,7%
same,half-life at 5 μM,"[1]; mouse, liver microsomes, 5 μM, read-out: elimination half-life in mouse liver microsomes",21 min
same,change in ocular surface PD,[2],large hyperpolarizations
